From ChEMBL document CHEMBL3596146, “Design, synthesis, and biological evaluation of a series of alkoxy-3-indolylacetic acids as peroxisome proliferator-activated receptor γ/δ agonists” (Bioorg Med Chem, 2015) come the findings set out here.

In data set [1] the target is T1, Peroxisome proliferator-activated receptor alpha (Homo sapiens) (UniProt Q07869).
T1 sequence (whole entry): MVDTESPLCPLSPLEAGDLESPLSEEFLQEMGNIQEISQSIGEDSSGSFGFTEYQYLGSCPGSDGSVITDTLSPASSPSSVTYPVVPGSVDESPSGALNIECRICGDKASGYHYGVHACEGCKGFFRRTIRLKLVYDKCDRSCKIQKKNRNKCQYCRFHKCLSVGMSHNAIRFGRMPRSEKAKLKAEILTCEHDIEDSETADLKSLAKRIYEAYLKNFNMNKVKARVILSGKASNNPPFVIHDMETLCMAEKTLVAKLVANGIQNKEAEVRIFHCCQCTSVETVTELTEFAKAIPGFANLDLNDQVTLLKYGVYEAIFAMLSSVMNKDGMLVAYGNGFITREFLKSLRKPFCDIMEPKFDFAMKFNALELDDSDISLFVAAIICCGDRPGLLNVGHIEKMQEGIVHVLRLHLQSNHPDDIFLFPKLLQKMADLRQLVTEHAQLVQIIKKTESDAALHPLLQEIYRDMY
Briefly: Agonist activity at PPAR-alpha (unknown origin) expressed in CV-1 cells co-transfected with tk-PPRE-luciferase vector at 10 uM after 24 hrs by transactivation assay relative to GW7647. The data set is classed as cell-based.

The target of data set [2] is T2, Peroxisome proliferator-activated receptor gamma (Homo sapiens) (UniProt P37231).
T2 sequence (whole entry): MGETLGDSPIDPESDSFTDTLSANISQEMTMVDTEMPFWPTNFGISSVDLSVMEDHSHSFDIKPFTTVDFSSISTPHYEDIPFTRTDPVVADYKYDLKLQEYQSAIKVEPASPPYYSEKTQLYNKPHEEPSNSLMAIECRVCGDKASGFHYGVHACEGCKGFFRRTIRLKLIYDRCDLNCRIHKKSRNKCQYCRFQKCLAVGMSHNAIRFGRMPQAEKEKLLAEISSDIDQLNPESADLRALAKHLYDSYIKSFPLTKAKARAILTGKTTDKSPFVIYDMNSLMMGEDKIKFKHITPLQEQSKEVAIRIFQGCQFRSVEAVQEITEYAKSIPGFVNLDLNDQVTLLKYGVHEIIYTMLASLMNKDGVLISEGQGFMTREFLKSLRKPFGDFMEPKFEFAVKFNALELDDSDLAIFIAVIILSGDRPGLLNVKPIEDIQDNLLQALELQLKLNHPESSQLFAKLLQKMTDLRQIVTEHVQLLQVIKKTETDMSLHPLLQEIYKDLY
Briefly: Agonist activity at PPAR-gamma (unknown origin) expressed in CV-1 cells co-transfected with tk-PPRE-luciferase vector at 10 uM after 24 hrs by transactivation assay relative to rosiglitazone. The data set is classed as cell-based.

The target of data set [3] is T3, Peroxisome proliferator-activated receptor delta (Homo sapiens) (UniProt Q03181).
T3 sequence (whole entry): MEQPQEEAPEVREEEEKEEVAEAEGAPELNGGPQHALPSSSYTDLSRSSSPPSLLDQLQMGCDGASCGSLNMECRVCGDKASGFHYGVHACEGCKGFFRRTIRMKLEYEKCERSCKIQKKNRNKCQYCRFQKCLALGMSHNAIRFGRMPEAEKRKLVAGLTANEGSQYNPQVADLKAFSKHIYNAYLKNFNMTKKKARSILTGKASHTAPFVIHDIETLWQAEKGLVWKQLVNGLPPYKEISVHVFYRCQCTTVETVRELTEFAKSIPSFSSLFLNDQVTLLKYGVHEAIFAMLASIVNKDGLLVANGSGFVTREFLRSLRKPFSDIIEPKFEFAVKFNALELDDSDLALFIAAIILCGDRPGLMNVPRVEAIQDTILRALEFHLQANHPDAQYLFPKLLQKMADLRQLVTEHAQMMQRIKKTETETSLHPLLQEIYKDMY
Put plainly: Agonist activity at PPAR-delta (unknown origin) expressed in HEK293t cells co-transfected with tk-PPRE-luciferase vector at 10 uM after 24 hrs by transactivation assay relative to GW0742. In kind it is cell-based. The conditions noted are these: HEK-293T.

Data set [4] concerns the target T4, Peroxisome proliferator-activated receptor alpha (Homo sapiens, UniProt Q07869).
T4 sequence (Q07869 whole entry): T1 sequence (whole entry)
Briefly: Agonist activity at PPAR-alpha (unknown origin) expressed in CV-1 cells co-transfected with tk-PPRE-luciferase vector after 24 hrs by transactivation assay. In kind it is cell-based.

Data set [5] addresses T5, Peroxisome proliferator-activated receptor gamma (Homo sapiens, UniProt P37231).
T5 sequence (P37231 whole entry): T2 sequence (whole entry)
Briefly: Agonist activity at PPAR-gamma (unknown origin) expressed in CV-1 cells co-transfected with tk-PPRE-luciferase vector after 24 hrs by transactivation assay. The data set is classed as cell-based.

Data set [6] deals with T6, Peroxisome proliferator-activated receptor delta (Homo sapiens, UniProt Q03181).
T6 sequence (Q03181 whole entry): T3 sequence (whole entry)
Briefly: Agonist activity at PPAR-delta (unknown origin) expressed in HEK293t cells co-transfected with tk-PPRE-luciferase vector after 24 hrs by transactivation assay. In kind it is cell-based, HEK-293T.

The test system of data set [7] is Liver microsome. Put plainly: Metabolic stability in human liver microsomes at 1 uM after 30 mins measured under phase 1 reaction by LC/MS/MS analysis. The data set is classed as ADME. The following applies: 0.5 h. A general note: Liver microsomes are a subcellular fraction often used to study metabolism.
The nature of data set [8]: Metabolic stability in mouse liver microsomes at 1 uM after 30 mins measured under phase 1 reaction by LC/MS/MS analysis. In kind it is ADME. The following applies: 0.5 h.
For data set [9], the system named is Liver microsome. Put plainly: Metabolic stability in human liver microsomes at 1 uM after 30 mins measured under phase 2 reaction by LC/MS/MS analysis. In kind it is ADME. The conditions noted are these: 0.5 h.
Data set [10] can be described thus: Metabolic stability in mouse liver microsomes at 1 uM after 30 mins measured under phase 2 reaction by LC/MS/MS analysis. In kind it is ADME. The following applies: 0.5 h.
Data set [11] concerns Mus musculus. Put plainly: Effect on body weight in C57BLKS/J-Lepr/Lepr db/db mouse at 3 to 10 mg/kg, po qd for 18 days administered via gavage. The following applies: in vivo, 432 h. In kind it is ADME, organism-based.
Data set [12] has as its system Mus musculus. Put plainly: Decrease in fasting blood glucose level in C57BLKS/J-Lepr/Lepr db/db mouse at 3 to 10 mg/kg, po qd for 18 days administered via gavage by ELISA. In kind it is functional, organism-based. (In general: ELISA stands for enzyme-linked immunosorbent assay.)
In data set [13] the test system is Mus musculus. Put plainly: Decrease in serum insulin level in C57BLKS/J-Lepr/Lepr db/db mouse at 3 to 10 mg/kg, po qd for 18 days administered via gavage by ELISA. The data set is classed as functional, organism-based.
Data set [14] has as its system Mus musculus. Put plainly: Decrease in serum Hb1Ac level in C57BLKS/J-Lepr/Lepr db/db mouse at 3 to 10 mg/kg, po qd for 18 days administered via gavage by ELISA. In kind it is functional, organism-based.
For data set [15], the system named is Mus musculus. Briefly: Decrease in triglyceride content in C57BLKS/J-Lepr/Lepr db/db mouse liver at 3 mg/kg, po administered via gavage by hematoxylin-eosin staining. In kind it is functional.
Data set [16] has as its system Mus musculus. Put plainly: Decrease in size of adipocytes in C57BLKS/J-Lepr/Lepr db/db mouse white adipose tissue at 10 mg/kg, po administered via gavage by hematoxylin-eosin staining relative to untreated control. The data set is classed as functional.
For data set [17], the system named is Mus musculus. Briefly: Decrease in size of adipocytes in C57BLKS/J-Lepr/Lepr db/db mouse white adipose tissue at 10 mg/kg, po administered via gavage by hematoxylin-eosin staining relative to rosiglitazone-treated control. In kind it is functional.
Data set [18] can be described thus: Retention time of the compound by HPLC analysis. The data set is classed as physicochemical.

The source made the active and inactive calls. No cut-off for these calls is given here.

Consider `O=C(O)Cc1cn(Cc2ccccc2)c2ccc(OCCCOc3cccc(OCc4ccc(Cl)cc4)c3)cc12`, for which the Emax in data set [1] came out at 31.2%; in [2], 100%; in [3], 82%. For the same compound, the concentration giving a half-maximal response (EC50) (in general, the concentration needed to bring the measured effect to its halfway point) in data set [4] worked out at 8600 nM; in data set [5], 500 nM; in [6], 2200 nM. Moreover, the Stability entry (in the data set on Liver microsome [7]; in data set [8]; in the data set with Liver microsome [9]; in [10]) was “Stable” each time. In addition, the Activity entry with Mus musculus [11] is “Non-toxic”. The inhibition entry with Mus musculus [12], with Mus musculus [13] and in the data set with Mus musculus [14] was “Active” each time. Also, the inhibition in vivo (in general, the percentage by which the read-out fell short of the control) at 3 mg/kg in the data set on Mus musculus [15] was determined as 24%. For the same compound, the results for the inhibition in vivo at 10 mg/kg in the data set with Mus musculus [16] and in the data set with Mus musculus [17] were 18% and 36%, respectively. The Retention_time in data set [18] is 24.111 min.
